Patent US4642332A, “Effective hormonal peptides: D-3-Pal^6 -LHRH” (The Board of Regents, The University of Texas System, priority 1985, dated 1987)

Legend:
[1] = test system: pituitary cells from 21 day old rats; test: In vitro pituitary incubate assay (release of LH and FSH); assay type: cell-based, rat; settings: for FSH ng/ml medium ± SEM / LH ng/ml medium ± SEM: Table V, mean of 9
Protocol: The data in Tables IV and V are from the in vitro assay of the peptides with the pituitary incubate. This assay measures the release of LH and FSH in an in vitro system with pituitary cells from 21 day old rats. See, Bowers, C. Y. et al. on the inhibitory effects of leutinizing hormone releasing hormone analogs. Endocrinology, 106: 674 (1980).
The abbreviations are as follows: sc-subcutaneous, SEM-standard error of the mean; NS-not significant; ng-nanogram, and ml-milliliter. The p value represents the population coefficient .rho.(rho) which signifies whether a sample coefficient is significant or a chance deviation from zero.

[2] = test system: advanced prostatic carcinoma; set-up: clinical effect in patients with urinary obstruction: dose or concentration left out as unconfirmed; settings: subcutaneously, cited from earlier work
21 day old female rats = test: In vivo assay in rats for release of LH and FSH; set-up: species or system rat
Protocol: In vivo rat assay performed by a modification of the method of Bowers, C. Y. et al. Endocrinology, 106, 674 (1980). 21 day old female rats were injected sc with saline or peptide. Blood samples for the RIAs of LH and FSH were collected at +15, +60, +120, or +180 minutes. (Tables VI-XI).

men = settings: in men, after chronic administration; cited from earlier work
[3] = Table XI, 150 ng sc, +2 hrs, mean 5-6
[4] = Table XI, 150 ng sc, +3 hrs, mean 5-6

## CC(C)C[C@H](NC(=O)[C@@H](Cc1c[nH]c2ccccc12)NC(=O)[C@H](Cc1ccc(O)cc1)NC(=O)[C@H](CO)NC(=O)[C@H](Cc1c[nH]c2ccccc12)NC(=O)[C@H](Cc1c[nH]cn1)NC(=O)[C@@H]1CCC(=O)N1)C(=O)N[C@@H](CCCNC(=N)N)C(=O)N1CCC[C@H]1C(=O)NCC(N)=O [D-Trp^6 -LHRH, pyroGlu--His--Trp--Ser--Tyr--D-Trp--Leu--Arg--Pro--Gly--NH2]
[1]; dosage .01 ng/ml medium
  FSH ng/ml medium ± SEM: 450 ± 64 ng/mL
  LH ng/ml medium ± SEM: 68 ± 31 ng/mL
[1]; dosage .03 ng/ml medium
  FSH ng/ml medium ± SEM: 929 ± 207 ng/mL
  LH ng/ml medium ± SEM: 209 ± 74 ng/mL
[1]; dosage .10 ng/ml medium
  FSH ng/ml medium ± SEM: 1714 ± 224 ng/mL
  LH ng/ml medium ± SEM: 646 ± 69 ng/mL
[1]; comparable assays, statement in words
  potency, D-Qal^6 -LHRH compared with D-Trp^6 -LHRH: essentially equipotent
[2]; daily doses (so in the source)
  clinical effect in patients with urinary obstruction: noticeable clinical improvement
[2]; daily doses of 100 g and 50 g, respectively (so in the source)
  pain from bone metastases in patients with more advanced prostatic disease: relieved
21 day old female rats; Table VII, dosage 10 mg/rat sc (so in the source)
  LH ng/ml Serum ± SEM ± 60 min: 31 ± 6 ng/mL
21 day old female rats; Table VII, dosage 100 mg/rat sc (so in the source), ± 15 min
  LH ng/ml Serum ± SEM ± 15 min: 51 ± 10 ng/mL
21 day old female rats; Table VII, dosage 100 mg/rat sc (so in the source)
  LH ng/ml Serum ± SEM ± 60 min: 259 ± 34 ng/mL
21 day old female rats; [3]
  +2 hrs LH ± SEM ng/ml serum: 230 ± 41 ng/mL
  FSH ± SEM ng/ml serum (+2 hrs): 2332 ± 388 ng/mL
21 day old female rats; [4]
  +3 hrs LH ± SEM ng/ml serum: 117 ± 9 ng/mL
  FSH ± SEM ng/ml serum (+3 hrs): 2065 ± 151 ng/mL
men
  Leydig cell function: suppression of Leydig cell function
  serum levels of testosterone, dihydrotestosterone and estradiol: decreases
